pKi: −log10 of the molar value.
Columns and labels:
human VR1 [1] = biological target: T1, human VR1 (Homo sapiens, UniProt Q8NER1); experiment: Human VR1 functional assay (FLIPR intracellular Ca2+); type: cell-based; settings: for h % I (10 μM) / inhibition at 10 µM: inhibition of capsaicin response; for Emax at 12 µM / % Response Relative to EC80 of Capsaicin (12 μM): agonist response; for Emax at 12 µM: read-out: % Response Relative to EC80 of Capsaicin (12 μM); for inhibition at 10 µM: read-out: h % I (10 μM)
T1 construct: expressed in transfected cells; host or cells: HEK293
T1 sequence (Q8NER1 whole entry): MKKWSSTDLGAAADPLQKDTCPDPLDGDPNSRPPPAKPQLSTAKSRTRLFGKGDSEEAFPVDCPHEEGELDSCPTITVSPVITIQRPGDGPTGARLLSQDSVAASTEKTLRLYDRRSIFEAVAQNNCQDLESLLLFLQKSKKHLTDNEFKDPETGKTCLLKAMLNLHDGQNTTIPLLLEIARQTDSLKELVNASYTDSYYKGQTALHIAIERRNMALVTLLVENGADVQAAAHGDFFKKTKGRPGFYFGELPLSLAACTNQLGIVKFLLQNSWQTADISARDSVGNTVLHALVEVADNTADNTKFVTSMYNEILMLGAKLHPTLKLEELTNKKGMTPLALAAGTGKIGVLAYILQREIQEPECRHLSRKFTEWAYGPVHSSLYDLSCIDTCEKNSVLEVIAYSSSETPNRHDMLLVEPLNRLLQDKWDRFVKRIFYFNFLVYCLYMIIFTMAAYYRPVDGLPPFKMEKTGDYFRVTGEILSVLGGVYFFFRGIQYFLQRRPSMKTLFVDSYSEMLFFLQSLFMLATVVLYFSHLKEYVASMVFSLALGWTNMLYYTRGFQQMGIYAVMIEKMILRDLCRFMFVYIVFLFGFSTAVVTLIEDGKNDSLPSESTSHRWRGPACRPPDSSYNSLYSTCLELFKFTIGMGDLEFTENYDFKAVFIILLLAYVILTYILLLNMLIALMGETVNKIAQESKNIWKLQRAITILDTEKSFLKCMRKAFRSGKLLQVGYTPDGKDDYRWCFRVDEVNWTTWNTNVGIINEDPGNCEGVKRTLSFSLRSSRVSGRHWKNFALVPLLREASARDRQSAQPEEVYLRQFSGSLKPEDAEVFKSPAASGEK
Description: The functional activity of the test compounds was determined by measuring changes in intracellular calcium concentration using a Ca^2+-sensitive fluorescent dye and FLIPR™ technology. Increases in Ca^2+ concentration were readily detected upon challenge with capsaicin. HEK293 Cells expressing human VR1 were grown on poly-D-lysine coated 384 well black-walled plates (BD 354663) and 1 day later loaded with Calcium 3 Dye for 35 min at 37 C, 5% CO2 and then for 25 min at room temperature, and subsequently tested for agonist-induced increases in intracellular Ca^2+ levels using FLIPR™ technology. Cells were challenged with test compounds (at varying concentrations, which are indicated in parentheses in the heading of the table below) and intracellular Ca^2+ was measured for 5 min prior to the addition of capsaicin to all wells to achieve a final concentration of eliciting an approximate 80% maximal response ([…]). EC50 or IC50 values were determined from dose-response studies. Curves were generated using the average of quadruplicate wells for each data point.

human VR1 [2] = biological target: T1, human VR1; experiment: Human VR1 [3H]RTX binding assay; settings: for h Binding % I (1 μM) / inhibition at 1 µM: inhibition of [3H]RTX binding at 1 μM; for pKi: [3H]RTX binding, HEK293 membranes; for inhibition at 1 µM: read-out: h Binding % I (1 μM)
Description: Compounds of the present invention were tested for their ability to inhibit the binding of tritiated resiniferatoxin ([^3H] RTX) to human VR1 receptors in a [^3H] RTX binding assay, as previously described (Zhang, Sui-Po. Improved ligand binding assays for vanilloid receptors. PCT Int. Appl. (2002), WO 0233411 A1 20020425 AN 2002:315209; Grant, Elfrida R., Dubin, Adrienne E., Zhang, Sui-Po, Zivin, Robert A., Zhong, Zhong Simultaneous intracellular calcium and sodium flux imaging in human VR1-transfected human embryonic kidney cells: a method to resolve ionic dependence of VR1-mediated cell death. J. Pharmacol. Exp. ther., 2002, 300(1), 9-17.) HEK293 cells were transfected with human VR1 and washed with Hank's balanced Salt Solution, dissociated with cell dissociation buffer (Sigma), and then centrifuged at 1000× g for 5 min. Cell pellets were homogenized in cold 20 mM HEPES buffer (pH 7.4), containing 5.8 mM NaCl, 320 mM sucrose, 2 mM MgCl2, 0.75 CaCl2 and 5 mM KCl and centrifuged at 1000× g for 15 min. The resultant supernate was then centrifuged at 40000× g for 15 min. The pelleted membranes were stored in a freezer at −80 C.
Approximately 120 μg protein/ml from membranes were incubated with indicated concentrations of [^3H]RTX in 0.5 ml of the HEPES buffer (pH 7.4) containing 0.25 mg/mL fatty acid-free bovine serum albumin at 37 C for 60 min. After cooling the reaction mixture to 4 C, 0.1 mg (x-acid glycoprotein was added to each sample, which was incubated at 4 C for 15 min and then centrifuged at 18500× g for 15 min. The tip of the microcentrifuge tube containing the pellet was cut off. Bound radioactivity was quantified by scintillation counting. Non-specific binding was assessed in the presence of 200 nM unlabeled resiniferatoxin.
Data were calculated according to the equation: % inhibtion=(total binding−binding)*100/(total binding−non specific binding).
Ki values were calculated based on an average of duplicate measurements using a GraphPad Prism program.

| h Binding % I (1 μM) (human VR1 [2]) | SMILES | also measured |
| --- | --- | --- |
| 1% | CC(C)(C)c1ccc(CCC(=O)Nc2ccccc2-c2ccc(O)cc2)cc1 [Cpd 1] | h % I (10 μM) (human VR1 [1]): 45% |
| 11% | CC(C)(C)c1ccc(CCC(=O)Nc2cccc(-c3ccc(O)cc3)c2)cc1 [Cpd 2] | h % I (10 μM) (human VR1 [1]): 41% |
| – | CC(C)(C)c1ccc(CCC(=O)Nc2ccc(-c3ccc(O)cc3)cc2)cc1 [Cpd 3] | Emax at 12 µM (human VR1 [1]): 65%; inhibition at 10 µM (human VR1 [1]): 44%; pKi (human VR1 [2]): 7.29; inhibition at 1 µM (human VR1 [2]): 90% |
| 1% | CC(C)(C)c1ccc(CCC(=O)Nc2ccccc2-c2cccc(O)c2)cc1 [Cpd 4] | h % I (10 μM) (human VR1 [1]): 35% |
| 4% | CC(C)(C)c1ccc(CCC(=O)Nc2cccc(-c3cccc(O)c3)c2)cc1 [Cpd 5] | h % I (10 μM) (human VR1 [1]): 35% |
| – | CC(C)(C)c1ccc(CCC(=O)Nc2ccc(-c3cccc(O)c3)cc2)cc1 [Cpd 6, 3-(4-tert-butyl-phenyl)-N-(3′-hydroxy-biphenyl-4-yl)-propionamide] | Emax at 12 µM (human VR1 [1]): 24%; pKi (human VR1 [2]): 7.07; inhibition at 1 µM (human VR1 [2]): 67% |
| 1% | CC(C)(C)c1ccc(CCC(=O)Nc2cccc(-c3ccccc3O)c2)cc1 [Cpd 9] | h % I (10 μM) (human VR1 [1]): 16% |
| 89% | CC(C)(C)c1ccc(CCC(=O)Nc2ccc(-c3ccccc3O)cc2)cc1 [Cpd 10] | % Response Relative to EC80 of Capsaicin (12 μM) (human VR1 [1]): 67%; h % I (10 μM) (human VR1 [1]): 40%; pKi (human VR1 [2]): 7.30 |
| – | CC(C)(C)c1ccc(CCC(=O)Nc2ccc(-c3cccc([N+](=O)[O-])c3)cc2)cc1 [Cpd 11] | inhibition at 10 µM (human VR1 [1]): 36%; pKi (human VR1 [2]): 6.84; inhibition at 1 µM (human VR1 [2]): 84% |
| 36% | CC(C)(C)c1ccc(CCC(=O)Nc2ccc(-c3cccc(C(F)(F)F)c3)cc2)cc1 [Cpd 12] | % Response Relative to EC80 of Capsaicin (12 μM) (human VR1 [1]): 47% |
| 35% | CC(=O)c1cccc(-c2ccc(NC(=O)CCc3ccc(C(C)(C)C)cc3)cc2)c1 [Cpd 13] | h % I (10 μM) (human VR1 [1]): 35% |
| 40% | CC(C)(C)c1ccc(CCC(=O)Nc2ccc(-c3cccc(CO)c3)cc2)cc1 [Cpd 23] | – |
| – | CC(C)(C)c1ccc(CCC(=O)Nc2ccc(-c3cccc(C#N)c3)cc2)cc1 [Cpd 25] | pKi (human VR1 [2]): 6.99; inhibition at 1 µM (human VR1 [2]): 94% |
| – | COc1cccc(-c2ccc(NC(=O)CCc3ccc(C(C)(C)C)cc3)cc2)c1 [Cpd 27] | pKi (human VR1 [2]): 6.07; inhibition at 1 µM (human VR1 [2]): 53% |
| – | CC(C)(C)c1ccc(/C=C/C(=O)Nc2cccc(-c3cccc(C(N)=O)c3)c2)cc1 [Cpd 33] | pKi (human VR1 [2]): 6.77; inhibition at 1 µM (human VR1 [2]): 82% |
| 1% | NC(=O)c1cccc(-c2ccc(NC(=O)/C=C/c3ccc(C(F)(F)F)cc3)cc2)c1 [Cpd 47] | – |
| 11% | Cc1cc(-c2cccc(C(N)=O)c2)ccc1NC(=O)CCc1ccc(C(C)(C)C)cc1 [Cpd 50] | – |
| 19% | Cc1cc(NC(=O)CCc2ccc(C(C)(C)C)cc2)ccc1-c1cccc(C(N)=O)c1 [Cpd 51] | – |
| 1% | CC(C)(C)c1ccc(CCC(=O)Nc2ccc(-c3cccc(C(N)=O)c3)cc2F)cc1 [Cpd 52] | – |

| h Binding % I (1 μM) (human VR1 [2]) | SMILES | also measured |
| --- | --- | --- |
| 27% | CC(C)(C)c1ccc(CCC(=O)Nc2ccc(-c3cccc(C(N)=O)c3)c(F)c2)cc1 [Cpd 53] | – |
| 5% | CC(=O)Nc1cccc(-c2ccc(NC(=O)CCc3ccc(C(C)(C)C)cc3)c(C)c2)c1 [Cpd 54] | – |
| 16% | CC(=O)Nc1cccc(-c2ccc(NC(=O)CCc3ccc(C(C)(C)C)cc3)c(F)c2)c1 [Cpd 56] | – |
| 1% | CC(C)(C)c1ccc(CCC(=O)Nc2ccc(-c3cccc(C(N)=O)c3)cc2)s1 [Cpd 63] | – |
| 33% | CC(=O)Nc1cccc(-c2ccc(NC(=O)CCc3ccc(C(C)(C)C)s3)cc2)c1 [Cpd 64] | – |
| 1% | CC(C)(C)c1ccc(CCC(=O)Nc2ccc(-c3cccc(C(N)=O)c3)cc2C(=O)O)cc1 [Cpd 66] | – |
| 1% | CNC(=O)c1cccc(-c2ccc(NC(=O)CCc3ccc(C(C)(C)C)cc3)c(C(=O)O)c2)c1 [Cpd 67] | – |
| 1% | CC(C)(C)c1ccc(CCC(=O)Nc2ccc(-c3cccc(O)c3)cc2C(=O)O)cc1 [Cpd 68] | – |
| 1% | CC(C)(C)c1ccc(CCC(=O)Nc2cccc(-c3cccnc3)c2)cc1 [Cpd 106] | – |
| – | CC(C)(C)c1ccc(CCC(=O)Nc2ccc(-c3ccccn3)cc2)cc1 [Cpd 110] | pKi (human VR1 [2]): 7.95; inhibition at 1 µM (human VR1 [2]): 97% |
| – | CC(C)(C)c1ccc(CCC(=O)Nc2ccc(-c3ncccn3)cc2)cc1 [Cpd 112] | pKi (human VR1 [2]): 6.67; inhibition at 1 µM (human VR1 [2]): 68% |
| 1% | CC(C)(C)c1ccc(CCC(=O)Nc2cccc(-c3cncnc3)c2)cc1 [Cpd 117] | – |
| 1% | COc1ccc(-c2cccc(NC(=O)CCc3ccc(C(C)(C)C)cc3)c2)cn1 [Cpd 119] | – |
| 36% | COc1ccc(-c2ccc(NC(=O)CCc3ccc(C(C)(C)C)cc3)cc2)cn1 [Cpd 121] | – |
| – | CC(C)(C)c1ccc(CCC(=O)Nc2ccc(-c3cccc4[nH]ccc34)cc2)cc1 [Cpd 122] | pKi (human VR1 [2]): 6.47; inhibition at 1 µM (human VR1 [2]): 64% |
| 39% | CC(C)(C)c1ccc(CCC(=O)Nc2ccc(-c3ccc4cc[nH]c4c3)cc2)cc1 [Cpd 123] | – |
| 1% | CC(C)(C)c1ccc(CCC(=O)Nc2ccc(-c3cccc(C(N)=O)c3)cn2)cc1 [Cpd 124] | – |
| 1% | CC(=O)Nc1cccc(-c2ccc(NC(=O)CCc3ccc(C(C)(C)C)cc3)nc2)c1 [Cpd 125] | – |
| 9% | CC(C)(C)c1ccc(CCC(=O)Nc2cccc(-c3cccc(O)c3)n2)cc1 [Cpd 126] | – |

| h Binding % I (1 μM) (human VR1 [2]) | SMILES | also measured |
| --- | --- | --- |
| 16% | CC(C)(C)c1ccc(CCC(=O)Nc2ccc(-c3cccc(C(N)=O)c3)nc2)cc1 [Cpd 127] | – |
| 1% | CC(C)(C)c1ccc(CCC(=O)Nc2ncc(-c3cccc(C(N)=O)c3)cn2)cc1 [Cpd 130] | – |
| 1% | CC(C)(C)c1ccc(CCC(=O)Nc2cnc(-c3cccc(C(N)=O)c3)cn2)cc1 [Cpd 131] | – |
| 25% | CC(C)(C)c1ccc(CCC(=O)Nc2ccc(-c3cccc(CO)c3)nc2)cc1 [Cpd 134] | – |
| 1% | CC(C)(C)c1ccc(CCC(=O)Nc2ccc(-c3ccncc3)cc2C(=O)O)cc1 [Cpd 139] | – |
| 1% | CC(C)(C)c1ccc(CCC(=O)Nc2ccc(-c3ccncc3)cc2CO)cc1 [Cpd 140] | – |
| 1% | CC(C)(C)c1ccc(CCC(=O)Nc2ccc(-c3ccncc3)c(C(=O)O)c2)cc1 [Cpd 141] | – |
| 8% | O=C(CCc1ccc(C(F)(F)F)cc1)Nc1ccc(-c2ccccc2O)nc1 [Cpd 146] | – |
| 15% | CC(=O)Nc1cccc(-c2ccc(NC(=O)CCc3ccc(C(C)(C)C)cc3)c3ccncc23)c1 [Cpd 154] | – |
| 89% | CC(C)(C)c1ccc(CCC(=O)Nc2ccc(-c3cccc(O)c3)c3cnccc23)cc1 [Cpd 155] | – |
| 33% | CC(C)(C)c1ccc(CCC(=O)Nc2ccc(-c3ccncc3)c3cnccc23)cc1 [Cpd 156] | – |
| 77% | O=C(CCc1ccc(C(F)(F)F)cc1)Nc1ccc(-c2cccc(O)c2)c2cnccc12 [Cpd 158] | – |
| 1% | O=C(CCc1ccc(C(F)(F)F)cc1)Nc1ccc(-c2ccncc2)c2cnccc12 [Cpd 159] | – |
| 50% | CC(C)(C)c1ccc(CCC(=O)Nc2ccc(-c3c[nH]cn3)cc2)cc1 [Cpd 192] | – |
| 49% | CC(C)(C)c1ccc(CCC(=O)Nc2ccc(-c3cnco3)cc2)cc1 [Cpd 193] | – |
| 76% | Cc1cc(C)n(-c2ccc(NC(=O)CCc3ccc(C(C)(C)C)cc3)cc2)n1 [Cpd 196] | – |
| 100% | CC(C)(C)c1ccc(CCC(=O)Nc2ccc(-n3cnc(Cl)c3Cl)cc2)cc1 [Cpd 200] | – |
| – | CC(C)(C)c1ccc(CCC(=O)Nc2ccc(-n3ccnc3)cc2)cc1 [Cpd 261] | pKi (human VR1 [2]): 6.51 |
